Measurements: ChEMBL document CHEMBL2203089, “Synthesis of enantiomerically pure perhydro-1,4-diazepine-2,5-dione and 1,4-piperazine-2,5-dione derivatives exhibiting potent activity as apoptosis inhibitors” (Bioorg Med Chem Lett, 2012)
Activity calls are given as the source filed them. No cut-off for these calls is given here.

Experiments:
[1] = Inhibition of Apaf-1-caspase 9-cytochrome c (horse) complex assessed as inhibition of release of afc from […] preincubated for 60 mins before substrate addition by fluorescence assay
[2] = target: Apoptotic protease-activating factor 1/Caspase-3/Caspase-9/Cytochrome c (Homo sapiens, UniProt O14727+P42574+P55211+P99999); test: Inhibition of Apaf-1-caspase 9-cytochrome c-caspase 3 complex in human HEK293 cytosolic extract using afc-DEVD as substrate preincubated for 30 mins before substrate addition measured after 30 mins by fluorescence assay
[3] = Inhibition of beta-lactamase

Chain of Apoptotic protease-activating factor 1/Caspase-3/Caspase-9/Cytochrome c (O14727 whole entry): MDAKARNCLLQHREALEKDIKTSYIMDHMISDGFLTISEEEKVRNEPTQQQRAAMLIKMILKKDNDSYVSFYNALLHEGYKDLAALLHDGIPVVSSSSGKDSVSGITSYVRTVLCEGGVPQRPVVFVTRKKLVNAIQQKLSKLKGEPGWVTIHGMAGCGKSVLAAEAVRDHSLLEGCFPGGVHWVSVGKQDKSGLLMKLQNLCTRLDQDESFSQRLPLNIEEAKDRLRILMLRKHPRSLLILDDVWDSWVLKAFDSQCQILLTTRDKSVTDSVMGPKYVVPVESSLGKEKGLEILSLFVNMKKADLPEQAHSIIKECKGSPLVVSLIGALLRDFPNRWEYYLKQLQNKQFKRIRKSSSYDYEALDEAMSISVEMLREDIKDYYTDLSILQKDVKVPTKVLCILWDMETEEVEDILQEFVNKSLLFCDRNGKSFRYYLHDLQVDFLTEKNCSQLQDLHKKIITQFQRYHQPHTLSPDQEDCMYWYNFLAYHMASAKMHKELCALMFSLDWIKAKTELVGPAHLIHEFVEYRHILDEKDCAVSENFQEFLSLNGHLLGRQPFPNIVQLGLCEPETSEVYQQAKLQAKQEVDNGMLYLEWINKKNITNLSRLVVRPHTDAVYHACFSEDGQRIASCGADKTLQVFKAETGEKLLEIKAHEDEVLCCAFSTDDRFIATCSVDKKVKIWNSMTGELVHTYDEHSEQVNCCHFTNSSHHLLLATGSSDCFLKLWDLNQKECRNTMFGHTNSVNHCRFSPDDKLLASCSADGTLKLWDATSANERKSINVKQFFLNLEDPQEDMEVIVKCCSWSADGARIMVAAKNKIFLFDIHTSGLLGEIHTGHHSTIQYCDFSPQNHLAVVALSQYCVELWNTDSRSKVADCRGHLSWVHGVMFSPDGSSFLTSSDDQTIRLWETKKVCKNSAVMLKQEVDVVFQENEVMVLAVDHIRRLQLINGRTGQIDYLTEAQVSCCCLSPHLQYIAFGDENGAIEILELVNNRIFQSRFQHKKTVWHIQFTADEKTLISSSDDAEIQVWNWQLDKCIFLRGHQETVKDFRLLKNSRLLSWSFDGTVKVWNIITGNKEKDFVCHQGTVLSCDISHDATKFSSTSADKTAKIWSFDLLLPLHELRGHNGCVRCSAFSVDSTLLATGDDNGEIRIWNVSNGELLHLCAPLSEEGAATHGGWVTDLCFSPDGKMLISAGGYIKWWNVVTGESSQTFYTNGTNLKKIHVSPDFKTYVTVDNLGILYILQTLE
Chain of Apoptotic protease-activating factor 1/Caspase-3/Caspase-9/Cytochrome c (P42574 29-175 limits assumed): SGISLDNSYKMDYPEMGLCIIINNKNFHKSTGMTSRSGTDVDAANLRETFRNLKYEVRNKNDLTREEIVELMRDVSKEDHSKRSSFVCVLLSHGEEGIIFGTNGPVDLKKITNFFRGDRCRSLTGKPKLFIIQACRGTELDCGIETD
Chain of Apoptotic protease-activating factor 1/Caspase-3/Caspase-9/Cytochrome c (P42574 176-277 limits assumed): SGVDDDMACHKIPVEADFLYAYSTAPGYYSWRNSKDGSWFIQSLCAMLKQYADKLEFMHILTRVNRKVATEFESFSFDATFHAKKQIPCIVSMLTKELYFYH
Chain of Apoptotic protease-activating factor 1/Caspase-3/Caspase-9/Cytochrome c (P55211 1-315 limits assumed): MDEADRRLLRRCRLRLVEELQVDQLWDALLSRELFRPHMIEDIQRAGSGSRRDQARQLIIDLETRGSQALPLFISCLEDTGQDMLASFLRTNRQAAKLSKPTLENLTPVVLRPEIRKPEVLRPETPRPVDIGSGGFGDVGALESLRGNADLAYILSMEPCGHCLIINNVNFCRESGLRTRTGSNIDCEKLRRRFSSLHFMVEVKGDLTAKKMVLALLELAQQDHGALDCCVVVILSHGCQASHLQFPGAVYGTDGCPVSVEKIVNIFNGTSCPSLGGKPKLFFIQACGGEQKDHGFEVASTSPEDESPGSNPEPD
Chain of Apoptotic protease-activating factor 1/Caspase-3/Caspase-9/Cytochrome c (P55211 331-416 limits assumed): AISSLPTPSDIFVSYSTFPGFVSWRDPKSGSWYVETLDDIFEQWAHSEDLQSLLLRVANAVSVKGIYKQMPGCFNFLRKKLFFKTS
Chain of Apoptotic protease-activating factor 1/Caspase-3/Caspase-9/Cytochrome c (P99999 2-105 limits assumed): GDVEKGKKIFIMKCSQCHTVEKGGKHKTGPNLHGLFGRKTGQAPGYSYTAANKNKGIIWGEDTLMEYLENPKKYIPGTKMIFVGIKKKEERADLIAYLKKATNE

SMILES	EC50 [1]	EC50 [2]	inhibition [3]
NC(=O)CN(CCc1ccc(Cl)cc1Cl)C(=O)CC1C(=O)N(CCc2ccc(Cl)cc2Cl)CC(=O)N1CCC(c1ccccc1)c1ccccc1 (racemic)	6.2 µM	17 µM	–
NC(=O)CN(CCc1ccc(Cl)cc1Cl)C(=O)C1CC(=O)N(CCc2ccc(Cl)cc2Cl)CC(=O)N1CCC(c1ccccc1)c1ccccc1 (racemic)	7.9 µM	16.8 µM	–
NC(=O)CN(CCc1ccc(Cl)cc1Cl)C(=O)[C@H]1CC(=O)N(CCc2ccc(Cl)cc2Cl)CC(=O)N1CCC(c1ccccc1)c1ccccc1	5 µM	14.4 µM	inactive
NC(=O)CN(CCc1ccc(Cl)cc1Cl)C(=O)C[C@H]1C(=O)N(CCc2ccc(Cl)cc2Cl)CC(=O)N1CCC(c1ccccc1)c1ccccc1	9.6 µM	23.9 µM	inactive

Continued by falling EC50 [1], values first:

EC50 [1]	EC50 [2]	inhibition [3]	SMILES
10.6 µM	29.9 µM	inactive	NC(=O)CN(CCc1ccc(Cl)cc1Cl)C(=O)C[C@@H]1C(=O)N(CCc2ccc(Cl)cc2Cl)CC(=O)N1CCC(c1ccccc1)c1ccccc1
3.2 µM	14 µM	inactive	NC(=O)CN(CCc1ccc(Cl)cc1Cl)C(=O)[C@@H]1CC(=O)N(CCc2ccc(Cl)cc2Cl)CC(=O)N1CCC(c1ccccc1)c1ccccc1
